Results taken from US6734194B2, “Method of use of (imidazol-5-yl)methyl-2-quinolinone derivatives to inhibit smooth muscle cell proliferation” (Janssen Pharmaceutica N.V., priority 1997, dated 2004).

Assays:
Assay type in all cases: cell-based
[1] = system: human pulmonary artery smooth muscle cells (PASMC); test: Inhibition of smooth muscle cell proliferation, PASMC; conditions: 144 h, PASMC cell line, incubated six days, Coulter cell count normalized to DMSO-treated controls, read-out: IC50 (concentration of test compound producing a 50% inhibition of cell proliferation)
Excerpt: (§1) The effects of the compounds of the present invention were studied in human pulmonary artery smooth muscle cells (PASMC), human coronary artery smooth muscle cells (CASMC), and rat A10 arterial smooth muscle cells growing under standard tissue culture conditions. CASMC and PASMC cell cultures were purchased from Clonetics (San Diego, Calif.). A10 smooth muscle cells were purchased from the American Type Culture Collection (Bethesda, Md.). Cells were inoculated at an initial cell density of 50,000 cells per well in six-well plastic cluster tissue culture dishes in 3.0 ml of complete growth medium. Test compounds were dissolved in dimethysulfoxide (DMSO) and added in a 3 μl volume to each well to produce the desired concentrations of said test compound (5, 10, 50, 100 and 500 nM final concentrations). Cells were incubated for six days. On day 4, fresh medium plus a fresh solution containing the test compound were added to the cell cultures. On day 6, the growth medium was removed by aspiration. The cells were detached by trypsinizing in 1.0 ml of trypsin-EDTA solution. The cell suspensions were transferred to 20 ml of an isotonic diluent and 0.5 ml of the diluted cell suspension was counted with a Coulter particle counter. Cell counts from test compound-treated cultures were normalized to cell counts obtained from DMSO-treated controls and expressed as percent inhibition. […]

[2] = system: human coronary artery smooth muscle cells (CASMC); test: Inhibition of smooth muscle cell proliferation, CASMC; conditions: 144 h, CASMC cell line, incubated six days, Coulter cell count normalized to DMSO-treated controls, read-out: IC50 (concentration of test compound producing a 50% inhibition of cell proliferation)
Excerpt: as §1

[3] = system: rat A10 arterial smooth muscle cells; test: Inhibition of smooth muscle cell proliferation, A10 cells; conditions: 144 h, A10 cell line, incubated six days, Coulter cell count normalized to DMSO-treated controls, read-out: IC50 (concentration of test compound producing a 50% inhibition of cell proliferation)
Excerpt: as §1

SMILES: Cn1cncc1C(N)(c1ccc(Cl)cc1)c1ccc2c(c1)c(-c1cccc(Cl)c1)cc(=O)n2C (single isomer, unassigned; (+)) [Co. No. 75, (+)-6-[amino(4-chloro-phenyl)(1-methyl-1H-imidazol-5-yl)methyl]-4-(3-chlorophenyl)-1-methyl-2(1H)-quinolinone]
- IC50 [1]: 0.024 µM
- IC50 [2]: 0.016 µM
- IC50 [3]: 0.014 µM
